Where two headings read alike, the source gives them in different places.
Experiments:
[1] = tested on: Endomyces geotrichum; assay: Minimum inhibitory concentration against fungi, agar incorporation test, strain Q; assay type: cell-based; conditions: malt extract/agar
Method: (§1) The invention is carried out using the known agar incorporation test in the following fungi:
(§2) in a malt extract/agar (Merck). Inhibition is effected by adding sufficient of each of the various compounds to give final concentrations in the agar of 2, 5, 10, 50 and 100 mg/liter. The concentrations (mg/liters) required to inhibit the growth of the fungi (starting from traces of fungi added dropwise) are illustrated in Table 3.

[2] = tested on: Enteromorpha intestinalis; assay: Action against Enteromorpha intestinalis: inhibitory concentration (MIC); assay type: in vivo; conditions: seawater containing biocide for entire test; concentration tested 0.5 mg/liter
Method: (§3) The action against the green alga Enteromorpha, which is the most important in seawter fouling, is investigated in sterile-filtered seawater containing an Erd-Schreiber solution. This solution is composed of a nutrient extract, phosphate and nitrate. The incubation of Enteromorpha intestinalis is carried out in a light thermostat at 18° C. under an alternation of 14 hours of light and 10 hours of darkness.
For determining the inhibitory concentration (MIC), the algae are kept in seawater containing biocide for the entire duration of the test (concentration tested: 0.5 mg/liter).

[3] = tested on: Artemia salina; assay: Action against Artemia salina nauplii; assay type: in vivo; parameters: key: 0: no change; 1: slight change; 1-2: animals are attacked; 2: animals are strongly attacked; 2-3: animals are nearly all dead; 3: animals are all dead
Method: The eggs, which are available commercially, are caused to hatch by vigorous aeration. When 2-3 days old, the nauplii are exposed to the products at various concentrations (concentrations tested: 2.5; 1; 0.5 and 0.25 mg/liter) in synthetic seawater, and are observed over a prolonged period of time.

[4] = tested on: Aspergillus phoenicis; assay: Minimum inhibitory concentration against fungi, agar incorporation test, strain L; assay type: cell-based; conditions: malt extract/agar
Method: as §1
(L) Aspergillus phoenicis
as §2

[5] = tested on: Chlorella vulgaris; assay: Action against algae: Chlorella vulgaris; assay type: cell-based; parameters: key: --: no growth on the agar, 3 ppm have destroyed the algae in 6 hours; conditions: 3 mg/liter; for Growth on the agar (algae-destroying action): 6 hours exposure, 14 days incubation; for Growth in the medium (growth inhibition): 14 days
Method: Cultures of Chlorella vulgaris which had been grown for 14 days in algae nutrient media are diluted in the ratio 1/200 in the algae nutrient medium. Each of the compounds listed in Table 1 is then added in such an amount as to give a final concentration of 3 mg/liter. After incubating for 6 hours, 10 μl of each culture are withdrawn and added dropwise to algae/agar in order to determine the destructive action. After the cultures have incubated for 14 days under illumination (14 hours of light and 10 hours of darkness, alternately), the growth in the algae medium (determination of growth inhibition) and on the algae/agar (determination of algae-destroying action) is assessed visually.

[6] = tested on: Penicillium funiculosum; assay: Minimum inhibitory concentration against fungi, agar incorporation test, strain M; assay type: cell-based; conditions: malt extract/agar
Method: as §1
(M) Penicillium funiculosum
as §2

[7] = tested on: Proteus vulgaris; assay: Minimum inhibitory concentration against bacteria, strain A; assay type: cell-based; conditions: 24 hours at 30° C.; tested at 100 and 300 mg/liter
Method: (§4) Overnight cultures, grown in Caso peptone bouillon (Merck) of the various strains of bacteria: (A) Proteus vulgaris, (B) Pseudomonas aeruginosa, (C) Enterobacter aerogenes, (D) Serratia marcencens, (E) Alcaligenes denitrificans and (F) Bacillus subtilis are each diluted in a ratio of 1/1000 in saline solution. Sufficient of the suspensions is put into Caso peptone bouillon to dilute the bacteria again in the ratio of 1/1000. Each of the compounds listed in Table 1 is then added in amounts of 100 and 300 mg/liter. After being incubated for 24 hours at 30° C. in a shaking waterbath, the turbidity of the samples is evaluated.

[8] = tested on: Bacillus subtilis; assay: Minimum inhibitory concentration against bacteria, strain F; assay type: cell-based; conditions: 24 hours at 30° C.; tested at 100 and 300 mg/liter
Method: as §4

[9] = tested on: Chaetomium globosum; assay: Minimum inhibitory concentration against fungi, agar incorporation test, strain S; assay type: cell-based; conditions: malt extract/agar
Method: as §1, §2

[10] = tested on: Alternaria alternata; assay: Minimum inhibitory concentration against fungi, agar incorporation test, strain N; assay type: cell-based; conditions: malt extract/agar
Method: as §1, §2

[11] = tested on: Pseudomonas aeruginosa; assay: Minimum inhibitory concentration against bacteria, strain B; assay type: cell-based; conditions: 24 hours at 30° C.; tested at 100 and 300 mg/liter
Method: as §4

[12] = tested on: Enteromorpha intestinalis; assay: Action against Enteromorpha intestinalis: destruction (minimum killing concentration); assay type: in vivo; conditions: 4 hours in seawater, then 6-8 weeks in fresh seawater
Method: as §3
The algae which have been cultured in this way are exposed to the products under investigation for a short time (4 hours) in seawater. The minimum killing concentration (MKC) is determined by taking the algae out of the seawater containing a specific quantity of algicide, after the treatment time in the latter, washing the algae and investigating growth or mortality after incubation in fresh seawater for a further period of 6-8 weeks.
The minimum killing concentration (MKC) indicates the amount of substance required to cause such damage to the algae within a specific time that they can no longer recover in fresh seawater and die out.

[13] = tested on: Aureobasidium pullulans; assay: Minimum inhibitory concentration against fungi, agar incorporation test, strain R; assay type: cell-based; conditions: malt extract/agar
Method: as §1
(R) Aureobasidium pullulans
as §2

[14] = tested on: Enterobacter aerogenes; assay: Minimum inhibitory concentration against bacteria, strain C; assay type: cell-based; conditions: 24 hours at 30° C.; tested at 100 and 300 mg/liter
Method: as §4

[15] = tested on: Alcaligenes denitrificans; assay: Minimum inhibitory concentration against bacteria, strain E; assay type: cell-based; conditions: 24 hours at 30° C.; tested at 100 and 300 mg/liter
Method: as §4

[16] = tested on: Aspergillus niger; assay: Minimum inhibitory concentration against fungi, agar incorporation test, strain K; assay type: cell-based; conditions: malt extract/agar
Method: as §1, §2

[17] = tested on: mixed culture of bacteria; assay type: cell-based; parameters: key: +: growth, no destruction; (+): growth less than that of control (>10 colonies), slight destruction; (-): slight growth (1-10 colonies); -: no growth, destruction
[18] = tested on: Cladosporium cladosporioides; assay: Minimum inhibitory concentration against fungi, agar incorporation test, strain O; assay type: cell-based; conditions: malt extract/agar
Method: as §1
(O) Cladosporium cladosporioides
as §2

[19] = tested on: Candida albicans; assay: Minimum inhibitory concentration against fungi, agar incorporation test, strain P; assay type: cell-based; conditions: malt extract/agar
Method: as §1, §2

[20] = tested on: Serratia marcencens; assay: Minimum inhibitory concentration against bacteria, strain D; assay type: cell-based; conditions: 24 hours at 30° C.; tested at 100 and 300 mg/liter
Method: as §4

[21] = 5 mg/l, culture diluted 1/1000 in Tyrode
[22] = 5 mg/l, culture diluted 1/10000 in Tyrode
[23] = 10 mg/l, culture diluted 1/1000 in Tyrode
[24] = 10 mg/l, culture diluted 1/10000 in Tyrode
[25] = 30 mg/l, culture diluted 1/1000 in Tyrode
[26] = 30 mg/l, culture diluted 1/10000 in Tyrode
[27] = 60 mg/l, culture diluted 1/1000 in Tyrode
[28] = 60 mg/l, culture diluted 1/10000 in Tyrode
[29] = 100 mg/l, culture diluted 1/1000 in Tyrode
[30] = 100 mg/l, culture diluted 1/10000 in Tyrode

For `CCCCCCCCCCCC[N+](CCO)(CCO)Cc1ccccc1.CCC[CH2][Sn-]([Cl])([Cl])([CH2]CCC)[CH2]CCC` [Example 5, Dihydroxyethyl-benzyl-lauryl / Tributyldichloro], which “MIC against fungi, strain Q” value [1] is on record?
Its value is 5 µg/mL.

What about the MIC [2] of the same molecule?
Its MIC is 0.5 µg/mL.

What about the “Action against Artemia salina” value ([3]; 0,5 mg/l, 6 hours) of the same molecule?
Its value is 1-2.

And the “Action against Artemia salina” value ([3]; 0,5 mg/l, 24 hours)?
The value was 2-3.

And the “Action against Artemia salina” value ([3]; 0,5 mg/l, 48 hours)?
Its value is 3.

What about the “Action against Artemia salina” value ([3]; 0,25 mg/l, 6 hours) of the same molecule?
The value was 0-1.

What about the “Action against Artemia salina” value ([3]; 0,25 mg/l, 24 hours) of the same molecule?
Its value is 2.

What about the “Action against Artemia salina” value ([3]; 0,25 mg/l, 48 hours) of the same molecule?
Its value is 2-3.

And the “Action against Artemia salina” value ([3]; 1 mg/l, 6 hours)?
Its value is 2.

What about the “Action against Artemia salina” value ([3]; 1 mg/l, 24 hours) of the same molecule?
The value was 3.

And the “Action against Artemia salina” value ([3]; 1 mg/l, 48 hours)?
The value was 3.

What about the “Action against Artemia salina” value ([3]; 2,5 mg/l, 6 hours) of the same molecule?
The value was 2-3.

And the “Action against Artemia salina” value ([3]; 2,5 mg/l, 24 hours)?
The value was 3.

And the “Action against Artemia salina” value ([3]; 2,5 mg/l, 48 hours)?
Its value is 3.

What about the “MIC against fungi, strain L” value [4] of the same molecule?
Its value is 5 µg/mL.

And the “Growth on the agar (algae-destroying action)” value [5]?
Its value is “--”.

And the “Growth in the medium (growth inhibition)” value [5]?
The value was “--”.

What about the “MIC against fungi, strain M” value [6] of the same molecule?
The value was 5 µg/mL.

And the “MIC against bacteria, strain A” value [7]?
The value was 100 µg/mL.

And the “MIC against bacteria, strain F” value [8]?
Its value is 100 µg/mL.

What about the “MIC against fungi, strain S” value [9] of the same molecule?
The value was 2 µg/mL.

And the “MIC against fungi, strain N” value [10]?
The value was 5 µg/mL.

And the “MIC against bacteria, strain B” value [11]?
The value was 100 µg/mL.

What about the “Destruction, 5 mg/liter” value [12] of the same molecule?
The value was “yes”.

What about the “MIC against fungi, strain R” value [13] of the same molecule?
Its value is 2 µg/mL.

What about the “MIC against bacteria, strain C” value [14] of the same molecule?
Its value is 100 µg/mL.

And the “MIC against bacteria, strain E” value [15]?
The value was 100 µg/mL.

What about the “MIC against fungi, strain K” value [16] of the same molecule?
The value was 5 µg/mL.

What about the “Growth (destruction of a mixed culture of bacteria)” value [17, 21] of the same molecule?
The value was “+”.

And the “Growth (destruction of a mixed culture of bacteria)” value [17, 22]?
Its value is “+”.

What about the “Growth (destruction of a mixed culture of bacteria)” value [17, 23] of the same molecule?
The value was “+”.

What about the “Growth (destruction of a mixed culture of bacteria)” value [17, 24] of the same molecule?
Its value is “+”.

What about the “Growth (destruction of a mixed culture of bacteria)” value [17, 25] of the same molecule?
The value was “+”.

And the “Growth (destruction of a mixed culture of bacteria)” value [17, 26]?
The value was “+”.

And the “Growth (destruction of a mixed culture of bacteria)” value [17, 27]?
Its value is “+”.

What about the “Growth (destruction of a mixed culture of bacteria)” value [17, 28] of the same molecule?
The value was “+”.

What about the “Growth (destruction of a mixed culture of bacteria)” value [17, 29] of the same molecule?
Its value is “+”.

What about the “Growth (destruction of a mixed culture of bacteria)” value [17, 30] of the same molecule?
Its value is “(+) (growth less than that of control (>10 colonies), slight destruction)”.

And the “MIC against fungi, strain O” value [18]?
The value was 2 µg/mL.

What about the “MIC against fungi, strain P” value [19] of the same molecule?
The value was 5 µg/mL.

What about the “MIC against bacteria, strain D” value [20] of the same molecule?
Its value is 100 µg/mL.

What does the source list for `CCCCCCCCCCCCCC[N+](CCO)(CCO)Cc1ccccc1.CCC[CH2][Sn-]([Cl])([Cl])([CH2]CCC)[CH2]CCC` [Example 24, Di-hydroxyethyl-benzyl-tetradecyl / Tributyldichloro]?
MIC against fungi, strain Q [1]: 5 µg/mL; Action against Artemia salina ([3]; 0,5 mg/l, 6 hours): 1-2; Action against Artemia salina ([3]; 0,5 mg/l, 24 hours): 2-3; Action against Artemia salina ([3]; 0,5 mg/l, 48 hours): 3; Action against Artemia salina ([3]; 0,25 mg/l, 6 hours): 0-1; Action against Artemia salina ([3]; 0,25 mg/l, 24 hours): 2; Action against Artemia salina ([3]; 0,25 mg/l, 48 hours): 2-3; Action against Artemia salina ([3]; 1 mg/l, 6 hours): 2; Action against Artemia salina ([3]; 1 mg/l, 24 hours): 3; Action against Artemia salina ([3]; 1 mg/l, 48 hours): 3; Action against Artemia salina ([3]; 2,5 mg/l, 6 hours): 2-3; Action against Artemia salina ([3]; 2,5 mg/l, 24 hours): 3; Action against Artemia salina ([3]; 2,5 mg/l, 48 hours): 3; MIC against fungi, strain L [4]: 5 µg/mL; Growth on the agar (algae-destroying action) [5]: --; Growth in the medium (growth inhibition) [5]: --; MIC against fungi, strain M [6]: 5 µg/mL; MIC against bacteria, strain A [7]: 100 µg/mL; MIC against bacteria, strain F [8]: 100 µg/mL; MIC against fungi, strain S [9]: 2 µg/mL; MIC against fungi, strain N [10]: 5 µg/mL; MIC against bacteria, strain B [11]: 100 µg/mL; MIC against fungi, strain R [13]: 2 µg/mL; MIC against bacteria, strain C [14]: 100 µg/mL; MIC against bacteria, strain E [15]: 100 µg/mL; MIC against fungi, strain K [16]: 5 µg/mL; Growth (destruction of a mixed culture of bacteria) [17, 21]: +; Growth (destruction of a mixed culture of bacteria) [17, 22]: +; Growth (destruction of a mixed culture of bacteria) [17, 23]: +; Growth (destruction of a mixed culture of bacteria) [17, 24]: +; Growth (destruction of a mixed culture of bacteria) [17, 25]: +; Growth (destruction of a mixed culture of bacteria) [17, 26]: +; Growth (destruction of a mixed culture of bacteria) [17, 27]: +; Growth (destruction of a mixed culture of bacteria) [17, 28]: (+) (growth less than that of control (>10 colonies), slight destruction); Growth (destruction of a mixed culture of bacteria) [17, 29]: +; Growth (destruction of a mixed culture of bacteria) [17, 30]: -; MIC against fungi, strain O [18]: 2 µg/mL; MIC against fungi, strain P [19]: 5 µg/mL; MIC against bacteria, strain D [20]: 100 µg/mL

— patent publication US4578489A (priority 1982, dated 1986)
